For orientation: IC50 means the concentration needed to halve the response being measured.

Assay [1] has as its target T1, GDP loaded biotinylated KRas^G12C protein (Homo sapiens, UniProt P01116, G12C).
T1 construct: biotin (biotinylated); made in house
The experiment in a line: KRasG12C functional assay. It counts as biochemical. The conditions noted are these: HTRF FRET readout of SOS-mediated nucleotide exchange and GST-Raf RBD binding; samples incubated for 4 hrs; read-out: KRasG12C functional assay IC50 value. The procedure, abridged: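 Biotinylated GDP-loaded KRasG12C exchange driven by 0.08 μM SOS with 0.6 μM GTPγS, read by HTRF between europium and XL665 as active KRas binds 20 nM GST-Raf RBD. Buffer: 20 mM HEPES pH 7.5, 5 mM MgCl2, 150 mM NaCl, 0.01% Tween 20. IC50 from normalised FRET dose-response fits.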
A general note: Time-resolved FRET reads energy transfer from a long-lived donor to a nearby acceptor.

Assay [2] concerns the target T1, GDP loaded biotinylated KRas^G12C protein. The experiment in a line: KRasG12C mass spectrometry adducting assay. Format: binding. As to conditions: test compound final concentration 10 μM, 4 μM KRasG12C, react for 4 hours. The essentials:
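GDP-loaded biotinylated KRasG12C incubated with compound in 20 mM HEPES pH 7.5, 5 mM MgCl2, 150 mM NaCl, then analysed by LC–QTOF MS.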

T1 sequence (P01116 1-188 isoform P01116-2 G12C): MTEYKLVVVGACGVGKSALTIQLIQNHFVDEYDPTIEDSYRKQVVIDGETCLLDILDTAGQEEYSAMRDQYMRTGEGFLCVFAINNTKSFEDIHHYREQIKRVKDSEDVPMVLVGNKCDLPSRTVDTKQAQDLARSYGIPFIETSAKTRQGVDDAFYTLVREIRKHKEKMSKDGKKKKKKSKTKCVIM

In the case of `C=CC(=O)N1CCN2c3ncnc4cc(-c5cccc6ncoc56)c(Cl)c(c34)OC[C@@H]2C1` [Example 58, 1-[(8aS)-5-(1,3-Benzoxazol-7-yl)-6-chloro-8a,9,11,12-tetrahydropyrazino[2′,1′:3,4][1,4]oxazepino[5,6,7-de]quinazolin-10(8H)-yl]prop-2-en-1-one], in assay [1], the IC50 came to 7090 nM. Also, the “KRasG12C M.S. Binding Mean adduct %” value in assay [2] amounted to 42%.
For the molecule `C=CC(=O)N1CCN2c3ncnc4cc(-c5cccc(CC#N)c5)c(Cl)c(c34)OC[C@@H]2C1` [Example 59, {3-[(8aS)-10-Acryloyl-6-chloro-8,8a,9,10,11,12-hexahydropyrazino[2′,1′:3,4][1,4]oxazepino[5,6,7-de]quinazolin-5-yl]phenyl}acetonitrile], the IC50 in assay [1] amounted to 5850 nM. Besides, the “KRasG12C M.S. Binding Mean adduct %” value in assay [2] stood at 42%.
For `C=CC(=O)N1CCN2c3ncnc4cc(-c5ccccc5F)c(Cl)c(c34)OC[C@@H]2C1` [Example 60, 1-[(8aS)-6-Chloro-5-(2-fluorophenyl)-8a,9,11,12-tetrahydropyrazino[2′,1′:3,4][1,4]oxazepino[5,6,7-de]quinazolin-10(8H)-yl]prop-2-en-1-one] the same measures were 437 nM and 100%.
As to `C=CC(=O)N1CCN2c3ncnc4cc(-c5cccc6[nH]ncc56)c(Cl)c(c34)OC[C@@H]2C1` [Example 61, 1-[(8aS)-6-Chloro-5-(1H-indazol-4-yl)-8a,9,11,12-tetrahydropyrazino[2′,1′:3,4][1,4]oxazepino[5,6,7-de]quinazolin-10(8H)-yl]prop-2-en-1-one], the IC50 in assay [1] was found to be 2220 nM. In assay [2], the “KRasG12C M.S. Binding Mean adduct %” value came to 64%.
As to `C=CC(=O)N1CCN2c3ncnc4cc(-c5cccc(F)c5F)c(Cl)c(c34)OC[C@@H]2C1` [Example 62, 1-[(8aS)-6-Chloro-5-(2,3-difluorophenyl)-8a,9,11,12-tetrahydropyrazino[2′,1′:3,4][1,4]oxazepino[5,6,7-de]quinazolin-10(8H)-yl]prop-2-en-1-one], in assay [1], the IC50 worked out at 355 nM. Besides, in assay [2], the “KRasG12C M.S. Binding Mean adduct %” value is 100%.
For `C=CC(=O)N1CCN2c3ncnc4cc(-c5ccccc5O)c(Cl)c(c34)OC[C@@H]2C1` [Example 63, 1-[(8aS)-6-Chloro-5-(2-hydroxyphenyl)-8a,9,11,12-tetrahydropyrazino[2′,1′:3,4][1,4]oxazepino[5,6,7-de]quinazolin-10(8H)-yl]prop-2-en-1-one], the IC50 in assay [1] stood at 896 nM. The “KRasG12C M.S. Binding Mean adduct %” value in assay [2] came out at 87%.
In the case of `C=CC(=O)N1CCN2c3ncnc4cc(-c5ccc(F)cc5C)c(Cl)c(c34)OC[C@@H]2C1` [Example 64, 1-[(8aS)-6-Chloro-5-(4-fluoro-2-methylphenyl)-8a,9,11,12-tetrahydropyrazino[2′,1′:3,4][1,4]oxazepino[5,6,7-de]quinazolin-10(8H)-yl]prop-2-en-1-one], the IC50 in assay [1] was 1570 nM. For the same molecule, the “KRasG12C M.S. Binding Mean adduct %” value in assay [2] worked out at 75%.
For `C=CC(=O)N1CCN2c3ncnc4cc(-c5ccccc5CO)c(Cl)c(c34)OC[C@@H]2C1` [Example 65, 1-[(8aS)-6-Chloro-5-[2-(hydroxymethyl)phenyl]-8a,9,11,12-tetrahydropyrazino[2′,1′:3,4][1,4]oxazepino[5,6,7-de]quinazolin-10(8H)-yl]prop-2-en-1-one] the same measures were 3460 nM and 49%.
On the same counts, the results for `C=CC(=O)N1CCN2c3ncnc4cc(-c5ccc(F)cc5F)c(Cl)c(c34)OC[C@@H]2C1` [Example 66, 1-[(8aS)-6-Chloro-5-(2,4-difluorophenyl)-8a,9,11,12-tetrahydropyrazino[2′,1′:3,4][1,4]oxazepino[5,6,7-de]quinazolin-10(8H)-yl]prop-2-en-1-one] are 1450 nM and 84%.

Values taken from US20220127281A1, “HETEROARYL COMPOUNDS THAT INHIBIT G12C MUTANT RAS PROTEINS” (AstraZeneca AB, priority 2017, published 2022).
